Our source for the IC50 values is patent US12600728B2, “Interleukin-17 inhibitors” (priority 2020, dated 2026).

Assay [1] has as its target biotinylated human IL-17A / AF647-labeled human IL-17RA (Homo sapiens, UniProt Q16552). As to the kind of experiment: Human IL-17A×IL-17RA TR-FRET assay. It counts as binding. To be noted: 5 nM IL-17A, 30 nM IL-17RA. An outline of the steps: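 Compounds tested in duplicate at each concentration; neutral controls contain all components with DMSO in place of compound.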
A general note: Time-resolved FRET reads energy transfer from a long-lived donor to a nearby acceptor.

Assay [2] deals with recombinant human IL-17AA (Homo sapiens, UniProt Q16552). The assay can be described thus: IL-6 release from NHDF cells, IL-17AA plus TNF-α stimulation. It counts as cell-based. To be noted: IL-17AA 30 pM + TNF-α 6 pM, 24 hours, IL-6 by ELISA. An outline of the steps:
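ELISA measured IL-6 in supernatants after 24 h at 37° C of NHDF cells with a compound/cytokine cocktail, pre-mixed 30 min at room temperature. Duplicates; 0.1% DMSO or 20% plasma final. IC50 from IL-6 remaining after subtracting the TNF-α-alone signal.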

[3] abbreviates: IL17AA FRET/ IL17Rawt IC50, TR-FRET.
Setting [4] is: NHDF cells, read-out: IL17AA + TNF IC50 IL-6.
Setting [5] is: TR-FRET, read-out: IL17AA FRET/ IL17Rawt IC50.
[6] abbreviates: IL17AA + TNF IC50 IL-6, NHDF cells.

Where two headings read alike, the source gives them in different places. A value given as a limit tells only on which side of the number the result lay.

Sequence of biotinylated human IL-17A / AF647-labeled human IL-17RA (Q16552 24-155): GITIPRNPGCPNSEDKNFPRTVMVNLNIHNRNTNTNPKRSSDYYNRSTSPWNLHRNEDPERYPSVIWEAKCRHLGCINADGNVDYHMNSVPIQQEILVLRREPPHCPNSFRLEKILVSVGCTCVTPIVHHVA
Sequence of recombinant human IL-17AA (Q16552 24-155): as above

On to `Cc1cc[n+]([O-])c(C)c1-c1ccc(NC(=O)C(NC(=O)c2ccnn2C)C2CCCC(F)(F)C2)cc1` (stereo not shown) [Example 147, 3-(4-(2-(3,3-difluorocyclohexyl)-2-(1-methyl-1H-pyrazole-5-carboxamido)acetamido)phenyl)-2,4-dimethylpyridine 1-oxide], for which the results for the IC50 in assay [1] (setting [3]) and in assay [2] (setting [4]) were 513 nM and 193 nM, respectively.

As for `Cc1cc[n+]([O-])c(C)c1-c1ccc(NC(=O)[C@@H](NC(=O)c2ccnn2C)C2CCCCCC2)nc1` [Example 148, (S)-6′-(2-cycloheptyl-2-(1-methyl-1H-pyrazole-5-carboxamido)acetamido)-2,4-dimethyl-[3,3′-bipyridine] 1-oxide], the IC50 in assay [1] (setting [5]) was 125 nM; in assay [2] (setting [4]) it was 131 nM.

With `Cc1cc[n+]([O-])c(C)c1-c1ccc(NC(=O)[C@@H](NC(=O)c2ccc3n2CCN(C)C3)C2CCCCCC2)nc1` [Example 149, (S)-6′-(2-cycloheptyl-2-(2-methyl-1,2,3,4-tetrahydropyrrolo[1,2-a]pyrazine-6-carboxamido)acetamido)-2,4-dimethyl-[3,3′-bipyridine] 1-oxide], the IC50 in assay [1] (setting [5]) was found to be 118 nM; in assay [2] (setting [4]), 59 nM.

Turning to `Cc1cc[n+]([O-])c(C)c1-c1ccc(NC(=O)[C@@H](NC(=O)c2ccc3n2CCN(C)C3)C2CCC(F)(F)CC2)cc1` [Example 151, (S)-3-(4-(2-(4,4-difluorocyclohexyl)-2-(2-methyl-1,2,3,4-tetrahydropyrrolo[1,2-a]pyrazine-6-carboxamido)acetamido)phenyl)-2,4-dimethylpyridine 1-oxide], the IC50 in assay [1] (setting [5]) is 260 nM; in assay [2] (setting [4]), 57 nM.

For the compound `Cc1cc[n+]([O-])c(C)c1-c1ccc(NC(=O)C(NC(=O)c2ccnn2C)C2CCCCC(F)(F)C2)cc1` (stereo not shown) [Example 156, 3-(4-(2-(3,3-difluorocycloheptyl)-2-(1-methyl-1H-pyrazole-5-carboxamido)acetamido)phenyl)-2,4-dimethylpyridine 1-oxide], the IC50 stood at 110 nM in assay [1] (setting [5]) and 51.5 nM in assay [2] (setting [4]).

Consider `Cc1cc[n+]([O-])c(C)c1-c1ccc(NC(=O)[C@@H](NC(=O)c2cn[nH]c2C(C)C)C2CCCCC2)cc1` [Example 157, (S)-3-(4-(2-cyclohexyl-2-(5-isopropyl-1H-pyrazole-4-carboxamido)acetamido)phenyl)-2,4-dimethylpyridine 1-oxide], for which the figures for the IC50 in assay [1] (setting [5]) and in assay [2] (setting [4]) were 170 nM and 105 nM, respectively.

Take `Cc1c(-c2ccc(NC(=O)C(NC(=O)c3ccnn3C(C)C)C3CCCC(F)(F)C3)cc2)c(Cl)cc[n+]1[O-]` (stereo not shown) [Example 158, 4-chloro-3-(4-(2-(3,3-difluorocyclohexyl)-2-(1-isopropyl-1H-pyrazole-5-carboxamido)acetamido)phenyl)-2-methylpyridine 1-oxide]: the IC50 in assay [1] (setting [5]) is below 6.1 nM; in assay [2] (setting [4]), 15.5 nM.

Turning to `CCn1nccc1C(=O)N[C@H](C(=O)Nc1ccc(-c2c(C)cc[n+]([O-])c2C)cc1)C1CCC(F)(F)CC1` [Example 159, (S)-3-(4-(2-(4,4-difluorocyclohexyl)-2-(1-ethyl-1H-pyrazole-5-carboxamido)acetamido)phenyl)-2,4-dimethylpyridine 1-oxide], the IC50 in assay [1] (setting [3]) was determined as 100 nM; in assay [2] (setting [6]), 31 nM.

Take `Cc1c(-c2ccc(NC(=O)C(NC(=O)c3ccnn3C)C3CCCC(F)(F)C3)cc2)c(Cl)cc[n+]1[O-]` (stereo not shown) [Example 160, 4-chloro-3-(4-(2-(3,3-difluorocyclohexyl)-2-(1-methyl-1H-pyrazole-5-carboxamido)acetamido)phenyl)-2-methylpyridine 1-oxide]: the IC50 in assay [1] (setting [3]) came out at 89.5 nM; in assay [2] (setting [6]), 52.3 nM.

Regarding `Cc1cc[n+]([O-])c(C)c1-c1ccc(NC(=O)C(NC(=O)c2ccnn2C(C)C)C2CCCC(F)(F)C2)cc1` (stereo not shown) [Example 161, 3-(4-(2-(3,3-difluorocyclohexyl)-2-(1-isopropyl-1H-pyrazole-5-carboxamido)acetamido)phenyl)-2,4-dimethylpyridine 1-oxide], the values for the IC50 in assay [1] (setting [5]) and in assay [2] (setting [4]) were 130 nM and 20.5 nM, respectively.

Regarding `Cc1cc[n+]([O-])c(C)c1-c1ccc(NC(=O)[C@@H](NC(=O)c2conc2C)C2CCC(F)(F)CC2)cc1` [Example 162, (S)-3-(4-(2-(4,4-difluorocyclohexyl)-2-(3-methylisoxazole-4-carboxamido)acetamido)phenyl)-2,4-dimethylpyridine 1-oxide], the IC50 in assay [1] (setting [5]) is 186 nM; in assay [2] (setting [4]) it was 44 nM.

Take `COCc1nocc1C(=O)N[C@H](C(=O)Nc1ccc(-c2c(Cl)cc[n+]([O-])c2C)c(F)c1)C1CCC(F)(F)CC1` [Example 163, 4-chloro-3-(4-((S)-2-(4,4-difluorocyclohexyl)-2-(3-(methoxymethyl)isoxazole-4-carboxamido)acetamido)-2-fluorophenyl)-2-methylpyridine 1-oxide]: the values for the IC50 in assay [1] (setting [5]) and in assay [2] (setting [4]) were 191 nM and 68 nM, respectively.

As to `Cc1c(-c2ccc(NC(=O)[C@@H](NC(=O)c3ccc4n3CCN(C)C4)C3CCC(F)(F)CC3)cc2F)c(Cl)cc[n+]1[O-]` [Example 164, 4-chloro-3-(4-((S)-2-(4,4-difluorocyclohexyl)-2-(2-methyl-1,2,3,4-tetrahydropyrrolo[1,2-a]pyrazine-6-carboxamido)acetamido)-2-fluorophenyl)-2-methylpyridine 1-oxide], the results for the IC50 in assay [1] (setting [5]) and in assay [2] (setting [4]) were 199 nM and 45 nM, respectively.

For `Cc1cc[n+]([O-])c(C)c1-c1ccc(NC(=O)[C@@H](NC(=O)c2cnn(C)c2C)C2CCCCC2)cc1` [Example 167, (S)-3-(4-(2-cyclohexyl-2-(1,5-dimethyl-1H-pyrazole-4-carboxamido)acetamido)phenyl)-2,4-dimethylpyridine 1-oxide], the IC50 amounted to 155 nM in assay [1] (setting [5]) and 210 nM in assay [2] (setting [4]).

`Cc1cc(-c2ccc(NC(=O)[C@@H](NC(=O)c3conc3C)C3CCC(F)(F)CC3)cc2)c(C)[n+]([O-])c1` [Example 169, (S)-3-(4-(2-(4,4-difluorocyclohexyl)-2-(3-methylisoxazole-4-carboxamido)acetamido)phenyl)-2,5-dimethylpyridine 1-oxide]: the IC50 is 391 nM in assay [1] (setting [5]) and 339 nM in assay [2] (setting [4]).

Consider `CCn1nccc1C(=O)N[C@H](C(=O)Nc1ccc(-c2cc(Cl)c[n+]([O-])c2C)cc1)C1CCC(F)(F)CC1` [Example 170, (S)-5-chloro-3-(4-(2-(4,4-difluorocyclohexyl)-2-(1-ethyl-1H-pyrazole-5-carboxamido)acetamido)phenyl)-2-methylpyridine 1-oxide], for which the IC50 in assay [1] (setting [3]) is 402 nM; in assay [2] (setting [6]) it was 231 nM.

`Cc1cc(-c2ccc(NC(=O)[C@@H](NC(=O)c3ccnn3C)C3CCC(F)(F)CC3)cc2)c(C)[n+]([O-])c1` [Example 171, (S)-3-(4-(2-(4,4-difluorocyclohexyl)-2-(1-methyl-1H-pyrazole-5-carboxamido)acetamido)phenyl)-2,5-dimethylpyridine 1-oxide]: the IC50 was found to be 465 nM in assay [1] (setting [3]) and 398 nM in assay [2] (setting [6]).

As to `Cc1nocc1C(=O)N[C@H](C(=O)Nc1ccc(-c2cc(Cl)c[n+]([O-])c2C)c(F)c1)C1CCC(F)(F)CC1` [Example 172, (S)-5-chloro-3-(4-(2-(4,4-difluorocyclohexyl)-2-(3-methylisoxazole-4-carboxamido)acetamido)-2-fluorophenyl)-2-methylpyridine 1-oxide], the IC50 in assay [1] (setting [5]) turned out to be 596 nM; in assay [2] (setting [4]) it was 531 nM.

For `Cc1nocc1C(=O)N[C@H](C(=O)Nc1ccc(-c2cc(Cl)c[n+]([O-])c2C)cc1)C1CCC(F)(F)CC1` [Example 173, (S)-5-chloro-3-(4-(2-(4,4-difluorocyclohexyl)-2-(3-methylisoxazole-4-carboxamido)acetamido)phenyl)-2-methylpyridine 1-oxide], the results for the IC50 in assay [1] (setting [5]) and in assay [2] (setting [4]) were 659 nM and 1680 nM, respectively.

As for `Cc1c(-c2ccc(NC(=O)[C@@H](NC(=O)c3ccnn3C)C3CCC(F)(F)CC3)cc2F)cc(Cl)c[n+]1[O-]` [Example 174, (S)-5-chloro-3-(4-(2-(4,4-difluorocyclohexyl)-2-(1-methyl-1H-pyrazole-5-carboxamido)acetamido)-2-fluorophenyl)-2-methylpyridine 1-oxide], the IC50 is 683 nM in assay [1] (setting [3]) and 286 nM in assay [2] (setting [6]).

In the case of `Cc1c(-c2ccc(NC(=O)[C@@H](NC(=O)c3ccnn3C)C3CCCCC3)cc2)cc(Cl)c[n+]1[O-]` [Example 175, (S)-5-chloro-3-(4-(2-cyclohexyl-2-(1-methyl-1H-pyrazole-5-carboxamido)acetamido)phenyl)-2-methylpyridine 1-oxide], the IC50 stood at 846 nM in assay [1] (setting [3]) and 130 nM in assay [2] (setting [6]).

In the case of `Cc1cc[n+]([O-])c(C)c1-c1ccc(NC(=O)C(NC(=O)c2ccc3n2CCNC3)C2CCC(C(F)(F)F)CC2)cc1` [Example 178, 2,4-dimethyl-3-(4-((S)-2-(1,2,3,4-tetrahydropyrrolo[1,2-a]pyrazine-6-carboxamido)-2-((1r,4S)-4-(trifluoromethyl)cyclohexyl)acetamido)phenyl)pyridine 1-oxide], the IC50 in assay [1] (setting [5]) was determined as 8.96 nM; in assay [2] (setting [4]), 30 nM.

Regarding `Cc1c(-c2ccc(NC(=O)[C@@H](NC(=O)c3ccc4n3CCNC4)C3CCC(F)(F)CC3)cc2F)c(Cl)cc[n+]1[O-]` [Example 179, 4-chloro-3-(4-((S)-2-(4,4-difluorocyclohexyl)-2-(1,2,3,4-tetrahydropyrrolo[1,2-a]pyrazine-6-carboxamido)acetamido)-2-fluorophenyl)-2-methylpyridine 1-oxide], the IC50 in assay [1] (setting [5]) was found to be 13.9 nM; in assay [2] (setting [4]), 60 nM.
